What was measured:
[1] = system: type II collagen-immunized mice (collagen-induced arthritis); experiment: Experiment 1: collagen-induced arthritis (CIA) in mice, clinical assessment; type: in vivo; conditions: prednisolone 5 mg/kg i.p. daily
Protocol: Tests are conducted under a model of rheumatoid arthritis in mice (collagen-induced arthritis or CIA) that shares some similarities with the human disease. The tests evaluate the effect of plant extracts and Oxepa®, on the severity of CIA and concentration of inflammatory mediators.
Seven week-old DBA/1J (H-2^q) male mice (n=105) are purchased from Harlan (Barcelona, Spain) and housed in plastic cages (5 animals each) with free access to food and water.
The procedure followed for the animal immunization is carried out by injecting 100 μl of bovine collagen II emulsion (type II collagen in complete Freund's adjuvant) intradermically in the base of the tail. Collagen is supplied by Chondrex (MDbiosciences, Switzerland) and the emulsion is prepared as follows: collagen is dissolved in 0.05M acetic acid (2 mg/ml) overnight at 4° C. with constant, but gentle stirring and emulsified with Freund's adjuvant (1:1). The Freund's adjuvant is added drop by drop while mixing in a high-speed homogenisator (ultraturrax) at 27,000 rpm. […]
Mice are assessed daily for clinical symptoms of inflammation, and their weights are measured. […]
For the statistical analysis, outliers are removed if they differed from the mean more than three standard deviations. Homogeneity of variances is analysed by Levene's test. […] The classification of arthritic index into categories is analysed by Chi-squared.

IL-1β = experiment: Experiment 1: IL-1β ELISA in joint homogenates; type: in vivo, mice
Protocol: (§1) The following parameters are measured in joint homogenates: antibodies against type II collagen (IgG2a); proinflammatory cytokines: IL-1β and IL-6; counter-regulatory cytokines: IL-10; and Matrix metalloproteinases: MMP-9. Antibodies against type II collagen (IgG2a) are also measured in serum.
Cytokines and MMP-9 in homogenized joints are measured by ELISA using commercial kits from BIOTRAK (Amersham Pharmacia Biotech) following the supplier instructions and using joint homogenates without any further dilution.

IL-6 = experiment: Experiment 1: IL-6 ELISA in joint homogenates; type: in vivo, mice
Protocol: (§2) The following parameters are measured in joint homogenates: antibodies against type II collagen (IgG2a); proinflammatory cytokines: IL-1β and IL-6; counter-regulatory cytokines: IL-10; and Matrix metalloproteinases: MMP-9. Antibodies against type II collagen (IgG2a) are also measured in serum. Cytokines and MMP-9 in homogenized joints are measured by ELISA using commercial kits from BIOTRAK (Amersham Pharmacia Biotech) following the supplier instructions and using joint homogenates without any further dilution.

[2] = system: histological structure of cartilage and bone of arthritic joints; experiment: Experiment 3: histological scoring of joints of CIA mice (H&E); type: in vivo
Source text: Experiment 1 is repeated and the test animals evaluated for various histological changes associated with each control or treatment group. The purpose of this experiment is to show the effect of Boswellia serrata and Phlebodium decumanum extracts and Oxepa® on the histological structure of cartilage and bone in the same experimental model as described above. After again completing the above-described model, the mice are sacrificed 10 days after the arthritis onset by cervical dislocation under light anesthesia. Fore and hind limbs are dissected and the skin removed. Each is then immersed in 4% buffered formaldehyde for 2-3 days. Afterwards, each is treated with decalcificant solution for 2 hours and treated again for 60-90 minutes more. The samples are dehydrated with alcohol solutions of increasing concentrations, embedded in paraffin, cut into 4 μm slices and stain with hematoxilin and eosin (H&E). The following joints are thereafter studied: elbow, radio-cubito-carpo (wrist), carpo-metacarpo and metacarpo-phalange in fore limbs, and knee, tibio-tarso (ankle), tarso-metatarso, metatarso-phalange in hind limbs. Typical alterations of arthritic joints are considered, such as synovial inflammation, pannus formation, cartilage damage and bone destruction, and are scored on a nominal scale from 0 to 3. The scale is defined for each parameter as follows: Synovial inflammation: 0=Absence: normal synovial-periarticular tissue; 1=mild: infiltration of inflammatory cells in the periarticular tissue; 2=moderated: cell infiltration and moderated edema; 3=severe: marked cell infiltration and edema. Pannus formation: None (0), mild (1), moderate (2) or severe (3) proliferation of synovial tissue at the synovium-cartilage junction. Cartilage damage: 0=Absence: normal cartilage; 1=mild: damage of Zone I (external) with slight loss of chondrocytes and/or collagen disruption; 2=moderated: damage of Zone II (internal) with moderate loss of chondrocytes and/or collagen disruption: 3=severe: severe damage of all Zones with multifocal losses of chondrocytes and/or collagen disruption. Subchondral bone destruction: 0=Absence: normal bone; 1=mild: some areas of cortical degradation, few osteoclasts; 2=moderated: clear bone degradation with moderate medular damage, more osteoclasts; 3=severe: intense cortical and medular bone destruction, numerous osteoclasts. The scores of all joints are summed to obtain a general score for each histological parameter and animal. The histopathologist is not aware of the study groups during the evaluation of the samples. Homogeneity of variances are tested by the Bartelett's test. If homogeneity of variances is met, data are analysed by one-way ANOVA. If variances are not homogeneous, non-parametric procedures are used. The analysis is done by the Graph Pad Prism Software version 4.

MMP-9 = experiment: Experiment 1: MMP-9 ELISA in joint homogenates; type: in vivo, mice
Protocol: as §2

[3] = system: type II collagen-immunized mice (collagen-induced arthritis); experiment: Experiment 3: CIA in mice, arthritis index, onset and incidence; type: in vivo; conditions: prednisolone i.p. daily
[4] = system: antibodies against type II collagen (IgG2a); experiment: Experiment 1: anti-CII IgG2a ELISA in serum and joint homogenates; type: in vivo, mice
Protocol: Blood samples are taken from the retroorbital sinus under light anesthesia and the animals are immediately sacrificed by cervical dislocation. Fore and hind limbs are dissected and frozen at −80° C. Blood samples are allowed to cloth for 1 hour at room temperature and the serum is separated from blood cells by centrifugation at 6,500 g for 10 min.
as §1
Specific anti-CII—IgG2a in joints and serum of mice is determined by ELISA. Briefly, 96-well microtiter plates are coated overnight with CII at 4° C., washed with 0.05% Tween-PBS, blocked with 1% bovine serum albumin-PBS for 2 h at room temperature and then washed again. Samples are diluted with PBS before assay: 1:16000 for serum and 1:50 for homogenized joints. Fifty (50) μL of standards (type II collagen Ab-2, clone 2B1.5, NeoMarkers) from 0 to 500 ng/ml and samples are added to each well in duplicate, and incubated 2 h at 37° C. […] Finally the absorbance is measured in a microplate reader at 405 nm.

[5] = individual mice, sum of scores (0-3) of all joints

Structure (SMILES): C[C@]12C=CC(=O)C=C1CC[C@@H]1[C@@H]2[C@@H](O)C[C@@]2(C)[C@H]1CC[C@]2(O)C(=O)CO [prednisolone]
- development of arthritis [1]: do not develop arthritis
- content of IL-1β in joint homogenates versus control (IL-1β): lower
- content of IL-6 in joint homogenates versus control (IL-6): lower
- Bone score [2, 5]: 0
- Cartilage score [2, 5]: 0
- Inflammation score [2, 5]: 0
- Pannus score [2, 5]: 0
- joint appearance, histological slide ([2]; knee, left hind limb, H&E, FIG. 9): normal joint
- content of MMP-9 in joint homogenates versus control (MMP-9): lower
- development of arthritis [3]: do not develop arthritis
- IgG2a levels in joint homogenates versus control ([4]; joint homogenates): significantly lower
- IgG2a levels in serum versus control ([4]; serum): significantly lower

Source: patent publication US20060246115A1, “Nutritional products for ameliorating symptoms of rheumatoid arthritis” (priority 2005, published 2006)
